In US20190062305A1, “PYRIDYL OR PYRAZINYL COMPOUNDS CARRYING A METHYL-BOUND ALPHA-AMINO ACID AMIDE GROUP” (ABBVIE DEUTSCHLAND GMBH & CO. KG, priority 2015, published 2019):
Structures can show the parent of a compound that is named as a salt.

Assays:
5-HT2C receptor = molecular target: T1, 5-HT2C receptor (Homo sapiens, UniProt P28335); test: Human 5-HT2C functional assay (beta-arrestin2 recruitment, U2OS_HTR2C_β-Arrestin cells); type: cell-based; settings: for EC50: beta-arrestin2 recruitment, U2OS_HTR2C_β-Arrestin cells, 1.5 h incubation, read-out: EC50 5-HT2C (potency in functional assay); for Emax: relative efficacy vs response to 10 μM 5-HT or maximal 5-HT effect (100%)
T1 construct: host or cells: U2OS
T1 sequence (P28335 33-458): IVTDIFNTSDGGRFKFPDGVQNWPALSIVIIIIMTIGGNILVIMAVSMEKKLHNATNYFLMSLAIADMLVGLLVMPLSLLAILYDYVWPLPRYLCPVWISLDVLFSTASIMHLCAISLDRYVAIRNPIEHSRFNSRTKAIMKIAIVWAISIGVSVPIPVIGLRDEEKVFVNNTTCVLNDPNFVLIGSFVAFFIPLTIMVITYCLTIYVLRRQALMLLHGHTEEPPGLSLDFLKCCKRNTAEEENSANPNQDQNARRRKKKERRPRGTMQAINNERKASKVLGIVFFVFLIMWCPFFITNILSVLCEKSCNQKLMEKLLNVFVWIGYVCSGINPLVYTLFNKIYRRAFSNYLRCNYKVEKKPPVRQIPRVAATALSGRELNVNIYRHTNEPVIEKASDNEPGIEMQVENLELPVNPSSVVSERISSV
T1 sequence (P32121 whole entry partner): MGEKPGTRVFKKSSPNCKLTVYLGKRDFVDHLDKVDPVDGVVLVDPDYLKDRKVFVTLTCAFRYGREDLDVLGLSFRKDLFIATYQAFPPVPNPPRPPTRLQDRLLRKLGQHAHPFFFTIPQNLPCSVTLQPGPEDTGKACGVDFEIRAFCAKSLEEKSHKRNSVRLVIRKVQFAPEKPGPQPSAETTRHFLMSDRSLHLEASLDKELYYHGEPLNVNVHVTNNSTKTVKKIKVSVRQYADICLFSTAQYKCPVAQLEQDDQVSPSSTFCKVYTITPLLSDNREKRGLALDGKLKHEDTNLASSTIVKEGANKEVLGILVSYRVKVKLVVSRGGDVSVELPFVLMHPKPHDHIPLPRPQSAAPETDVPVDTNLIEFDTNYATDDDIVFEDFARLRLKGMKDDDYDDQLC
How it was run: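 EC50 and relative efficacy came from 4-parameter variable-slope fits, normalised to 10 µM 5-HT or maximal 5-HT response (100%). Luminescent β-galactosidase enzyme-complementation signal was read after 1.5 h compound exposure in U2OS_HTR2C_β-Arrestin cells held in 1% serum medium from the prior day.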

[1] = Metabolic stability in human liver microsomes, unbound intrinsic clearance (Cl int/fu mic); type: in vitro ADME; settings: human, liver microsomes, pH 7.4, human liver microsomes 0.25 mg/mL, 0.5 μM compound, NADPH, read-out: Cl int, mic unb. (h) [l/h/kg] (unbound intrinsic clearance, human)
How it was run: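 Unbound intrinsic clearance is CLint divided by fu mic, with the unbound fraction measured by 4 h HTDialysis at 37 °C of 0.25 mg/ml microsomes spiked with 0.5 µM compound. For CLint, 0.5 µM compound was incubated with 0.25 mg/mL human microsomes and 1.0 mM NADPH (pH 7.4, 37 °C). Substrate loss over 30 min was measured by LC-MS/MS and t1/2 assumed first-order kinetics.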

Row | SMILES | EC50 (5-HT2C receptor) [µM] | Emax (5-HT2C receptor) [%] | CLint scaled at 0.5 μM [1] [L/h/kg]
1 | COc1nc(OC2CCC(CF)CC2)c(F)cc1CNC(=O)[C@@H]1CCCN1 (stereo partly drawn) [Example 75, (2S)—N-[[5-fluoro-6-[4-(fluoromethyl)cyclohexoxy]-2-methoxy-3-pyridyl]methyl]-pyrrolidine-2-carboxamide; 2,2,2-trifluoroacetic Acid] | < 0.02 | > 70 | 5 to 50
2 | COc1nc(OCC2(C(F)(F)F)CC2)c(F)cc1CN(C)C(=O)[C@@H]1CCCN1 [Example 76, (2S)—N-[[5-Fluoro-2-methoxy-6-[[1-(trifluoromethyl)cyclopropyl]methoxy]-3-pyridyl]methyl]-N-methyl-pyrrolidine-2-carboxamide Hydrochloride] | < 0.02 | > 70 | < 5
3 | COc1nc(OCC2CC2(F)F)c(F)cc1CN(C)C(=O)[C@@H]1CCCN1 (stereo partly drawn) [Example 77, (2S)—N-[[6-[(2,2-Difluorocyclopropyl)methoxy]-5-fluoro-2-methoxy-3-pyridyl]-methyl]-N-methyl-pyrrolidine-2-carboxamide Hydrochloride] | < 0.02 | > 70 | < 5
4 | COc1nc(OC2CC(F)(F)C2)c(F)cc1CN(C)C(=O)[C@@H]1CCCN1 [Example 78, (2S)—N-[[6-(3,3-Difluorocyclobutoxy)-5-fluoro-2-methoxy-3-pyridyl]methyl]-N-methyl-pyrrolidine-2-carboxamide Hydrochloride] | < 0.02 | > 70 | < 5
5 | COc1nc(OC2CCC(C(F)(F)F)CC2)c(F)cc1CNC(=O)[C@H]1NC[C@H]1C (stereo partly drawn) [Example 79, (2S,3R)—N-[[5-Fluoro-2-methoxy-6-[4-(trifluoromethyl)cyclohexoxy]-3-pyridyl]-methyl]-3-methyl-azetidine-2-carboxamide; Fumaric Acid] | 0.02 to 0.2 | 30 to 50 | 50 to 500
6 | COc1nc(OC2CCC(O)CC2)c(F)cc1CNC(=O)[C@@H]1CCCN1 (stereo partly drawn) [Example 81, (2S)—N-[[5-Fluoro-6-(4-hydroxycyclohexoxy)-2-methoxy-3-pyridyl]methyl]-pyrrolidine-2-carboxamide; 2,2,2-trifluoroacetic Acid] | 0.2 to 1 | > 70 | < 5
7 | COc1nc(OC2CCC(C(F)(F)F)CC2)c(F)cc1CNC(=O)[C@@H]1C[C@H]2C[C@H]2N1 (stereo partly drawn) [Example 82, (1R,3 S,5R)—N-[[5-Fluoro-2-methoxy-6-[4-(trifluoromethyl)cyclohexoxy]-3-pyridyl]methyl]-4-azabicyclo[3.1.0]hexane-3-carboxamide] | 0.02 to 0.2 | > 70 | 5 to 50
8 | COc1nc(OCC(F)F)c(F)cc1CNC(=O)[C@@H]1CCCN1 [Example 86, (2S)—N-[[6-(2,2-Difluoroethoxy)-5-fluoro-2-methoxy-3-pyridyl]methyl]pyrrolidine-2-carboxamide; 2,2,2-trifluoroacetic Acid] | < 0.02 | > 70 | < 5
9 | COc1nc(OCC(F)(F)F)c(F)cc1CNC(=O)[C@@H]1CCCN1 [Example 87, (2S)—N-[[5-Fluoro-2-methoxy-6-(2,2,2-trifluoroethoxy)-3-pyridyl]methyl]-pyrrolidine-2-carboxamide; 2,2,2-trifluoroacetic Acid] | < 0.02 | > 70 | < 5
10 | COc1nc(OCC2CC(F)(F)C2(F)F)c(F)cc1CNC(=O)[C@@H]1CCCN1C (stereo partly drawn) [Example 90, (2S)—N-[[5-Fluoro-2-methoxy-6-[(2,2,3,3-tetrafluorocyclobutyl)methoxy]-3-pyridyl]methyl]-1-methyl-pyrrolidine-2-carboxamide Hydrochloride] | < 0.02 | > 70 | < 5
11 | COc1nc(OCC(F)(F)C(F)F)c(F)cc1CNC(=O)[C@@H]1CCCN1C [Example 91, (2S)—N-[[5-Fluoro-2-methoxy-6-(2,2,3,3-tetrafluoropropoxy)-3-pyridyl]methyl]-1-methyl-pyrrolidine-2-carboxamide Hydrochloride] | < 0.02 | > 70 | < 5
12 | COc1nc(OCC2CC(F)(F)C2)c(F)cc1CNC(=O)[C@@H]1CCCN1C [Example 92, (2S)—N-[[6-[(3,3-Difluorocyclobutyl)methoxy]-5-fluoro-2-methoxy-3-pyridyl]-methyl]-1-methyl-pyrrolidine-2-carboxamide Hydrochloride] | < 0.02 | > 70 | < 5
13 | COc1nc(OC2CCCC2F)c(F)cc1CNC(=O)[C@@H]1CCCN1 (stereo partly drawn) [Example 93, (2S)—N-[[5-Fluoro-6-(2-fluorocyclopentoxy)-2-methoxy-3-pyridyl]methyl]-pyrrolidine-2-carboxamide; 2,2,2-trifluoroacetic Acid] | < 0.02 | > 70 | < 5
14 | COc1nc(OC2CC(F)(F)C2)c(F)cc1CNC(=O)[C@@H]1C[C@@H](F)CN1 [Example 94, (2S,4R)—N-[[6-(3,3-Difluorocyclobutoxy)-5-fluoro-2-methoxy-3-pyridyl]methyl]-4-fluoro-pyrrolidine-2-carboxamide Hydrochloride] | < 0.02 | > 70 | < 5
15 | COc1nc(OC2CCCC3C2C3(F)F)c(F)cc1CNC(=O)[C@@H]1CCCN1 (stereo partly drawn) [Example 95, (2S)—N-[[6-(7,7-Difluoronorcaran-2-yl)oxy-5-fluoro-2-methoxy-3-pyridyl]methyl]-pyrrolidine-2-carboxamide] | < 0.02 | > 70 | 5 to 50
16 | COc1nc(OCC2(C(F)F)CC2)c(F)cc1CNC(=O)[C@@H]1CCCN1C [Example 96, (2S)—N-[[6-[[1-(Difluoromethyl)cyclopropyl]methoxy]-5-fluoro-2-methoxy-3-pyridyl]methyl]-1-methyl-pyrrolidine-2-carboxamide; (2S,3S)-2,3-dihydroxybutanedioic Acid] | < 0.02 | > 70 | < 5
17 | COc1nc(OCC2(C(F)F)CC2)c(F)cc1CNC(=O)[C@@H]1CCCN1 [Example 97, (2S)—N-[[6-[[1-(Difluoromethyl)cyclopropyl]methoxy]-5-fluoro-2-methoxy-3-pyridyl]methyl]pyrrolidine-2-carboxamide; (2S,3S)-2,3-dihydroxybutanedioic Acid] | < 0.02 | > 70 | < 5
18 | COc1nc(OCC2(C(F)(F)F)CC2)c(F)cc1CN(C)C(=O)[C@@H]1CCCN1C [Example 98, (2S)—N-[[5-Fluoro-2-methoxy-6-[[1-(trifluoromethyl)cyclopropyl]methoxy]-3-pyridyl]methyl]-N,1-dimethyl-pyrrolidine-2-carboxamide Hydrochloride] | 0.02 to 0.2 | 50 to 70 | < 5
19 | COc1nc(OC2CC(F)(F)C2)c(F)cc1CN(C)C(=O)[C@@H]1CCCN1C [Example 99, (2S)—N-[[6-(3,3-Difluorocyclobutoxy)-5-fluoro-2-methoxy-3-pyridyl]methyl]-N,1-dimethyl-pyrrolidine-2-carboxamide Hydrochloride] | 0.02 to 0.2 | 50 to 70 | < 5
20 | COc1nc(OCC(F)(F)F)c(F)cc1CNC(=O)[C@@H]1CCCN1C [Example 100, (2S)—N-[[5-Fluoro-2-methoxy-6-(2,2,2-trifluoroethoxy)-3-pyridyl]methyl]-1-methyl-pyrrolidine-2-carboxamide Hydrochloride] | < 0.02 | > 70 | < 5
21 | COc1nc(OC2CC(F)(F)C2)c(F)cc1CNC(=O)[C@H](C)N1CCC1 [Example 101, (2S)-2-(Azetidin-1-yl)-N-[[6-(3,3-difluorocyclobutoxy)-5-fluoro-2-methoxy-3-pyridyl]methyl]propanamide Hydrochloride] | < 0.02 | > 70 | < 5
22 | COc1nc(OCC(F)(F)C(F)F)c(F)cc1CN(C)C(=O)[C@@H]1CCCN1C [Example 102, (2S)—N-[[5-Fluoro-2-methoxy-6-(2,2,3,3-tetrafluoropropoxy)-3-pyridyl]methyl]-N,1-dimethyl-pyrrolidine-2-carboxamide Hydrochloride] | 0.2 to 1 | 50 to 70 | < 5
23 | COc1nc(OCC2CC(F)(F)C2(F)F)c(F)cc1CN(C)C(=O)[C@@H]1CCCN1C (stereo partly drawn) [Example 103, (2S)—N-[[5-Fluoro-2-methoxy-6-[(2,2,3,3-tetrafluorocyclobutyl)methoxy]-3-pyridyl]methyl]-N,1-dimethyl-pyrrolidine-2-carboxamide Hydrochloride] | 0.02 to 0.2 | 50 to 70 | < 5
24 | COc1nc(OC2CC(OC)C2)c(F)cc1CNC(=O)[C@@H]1CCCN1 (stereo partly drawn) [Example 104, (2S)—N-[[5-Fluoro-2-methoxy-6-(3-methoxycyclobutoxy)-3-pyridyl]methyl]-pyrrolidine-2-carboxamide Hydrochloride] | < 0.02 | > 70 | < 5
25 | COc1nc(OC2CC(C(F)(F)F)C2)c(F)cc1CNC(=O)[C@@H]1CCCN1 (stereo partly drawn) [Example 105, (2S)—N-[[5-Fluoro-2-methoxy-6-[3-(trifluoromethyl)cyclobutoxy]-3-pyridyl]-methyl]pyrrolidine-2-carboxamide Hydrochloride] | < 0.02 | > 70 | 5 to 50
